Where two headings read alike, the source gives them in different places.
What was measured:
[1] = molecular target: GDP-bound KRAS wild-type protein (Homo sapiens, UniProt P01116); assay: Binding to KRAS by surface plasmon resonance (SPR), dissociation constant KD
Outline: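 GDP-bound biotin-Avi RAS captured at ~100–300 RU, 30°C, pH 7.4 HBS containing 10 µM GDP, 10 mM MgCl2, 1 mM DTT, 0.01% Tween 20 and 4% DMSO. KD by 1:1 fitting.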

HRAS wild-type protein = HRAS wild-type protein (Homo sapiens, UniProt P01112); assay: Binding to HRAS by surface plasmon resonance (SPR), KD and KD ratio to KRAS
Chain of HRAS wild-type protein (P01112 whole entry): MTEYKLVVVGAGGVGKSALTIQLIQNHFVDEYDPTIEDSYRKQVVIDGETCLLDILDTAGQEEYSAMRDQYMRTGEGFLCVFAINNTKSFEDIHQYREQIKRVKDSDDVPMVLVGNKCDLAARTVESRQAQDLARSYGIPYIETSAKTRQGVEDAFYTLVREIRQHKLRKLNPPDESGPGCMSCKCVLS
Outline: (§1)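 Affinity is measured by surface plasmon resonance at 30°C against captured, GDP-loaded RAS carrying a biotinylated Avi tag. Compounds are titrated by single-cycle kinetics, and KD comes from a 1:1 fit.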

[2] = molecular target: GDP-bound NRAS wild-type protein (Homo sapiens, UniProt P01111); assay: Binding to NRAS by surface plasmon resonance (SPR), KD and KD ratio to KRAS
Chain of GDP-bound NRAS wild-type protein (P01111 whole entry): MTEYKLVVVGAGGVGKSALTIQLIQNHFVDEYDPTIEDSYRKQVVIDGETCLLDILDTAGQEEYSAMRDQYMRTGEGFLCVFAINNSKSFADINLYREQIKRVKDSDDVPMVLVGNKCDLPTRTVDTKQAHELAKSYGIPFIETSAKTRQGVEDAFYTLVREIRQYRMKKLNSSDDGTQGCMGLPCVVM
Outline: as §1

[3] = tested on: human lung cancer strain NCI-H441; assay: NCI-H441 cell proliferation inhibitory activity (CellTiter-Glo, 4 days); type: cell-based; conditions: read-out: NCl-H441 IC50
Outline: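 Readout: […] after the ATP-based reagent. Compound: serial dilutions in dimethyl sulfoxide.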

[4] = ratio of KD for HRAS wild-type protein to KD for KRAS
[5] = ratio of KD for GDP-bound NRAS wild-type protein to KD for KRAS
[6] = Single Cycle Kinetics, 1:1 binding model
[7] = ratio of KD with respect to HRAS wild-type protein to KD with respect to KRAS
[8] = ratio of KD with respect to GDP-bound NRAS wild-type protein to KD with respect to KRAS
[9] = 50% proliferation inhibitory concentration, four days

Chain of GDP-bound KRAS wild-type protein (P01116 1-188 isoform P01116-2): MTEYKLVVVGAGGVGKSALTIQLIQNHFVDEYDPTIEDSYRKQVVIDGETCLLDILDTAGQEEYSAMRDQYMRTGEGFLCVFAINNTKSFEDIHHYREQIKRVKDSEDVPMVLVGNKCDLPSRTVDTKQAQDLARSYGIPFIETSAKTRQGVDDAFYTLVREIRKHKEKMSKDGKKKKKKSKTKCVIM

SMILES	Kd ([1]; Single Cycle Kinetics)	IC50 ([3]; NCI-H441 cells, 4 days)	Kd [1, 6]	IC50 [3, 9]	Kd ([1]; 1:1 binding model)	HRAS /KRAS (HRAS wild-type protein; [4])	NRAS /KRAS [2, 5]	HRAS /KRAS (HRAS wild-type protein; [7])	NRAS /KRAS [2, 8]
CCCO[C@@H]1C[C@H]2C(=O)NC3(CC(C)(C)C3)C(=O)N(C)[C@@H](C3CCCC3)C(=O)N(C)[C@H](C(=O)N(C)CC)CC(=O)N(C)[C@@H](COCC)C(=O)N[C@@H]([C@@H](C)CC)C(=O)N3CCC[C@H]3C(=O)N(C)[C@H]3C/C=C\CCN(C3=O)[C@@H](Cc3ccc(C)cc3)C(=O)N(C)CC(=O)N[C@@H](CCc3ccc(C(F)(F)F)c(OC)c3)C(=O)N2C1 [PP3467]	1.3 nM	60.2 nM				A (a compound having 10 or more and less than 20 is denoted as A)	A (a compound having 10 or more and less than 20 is denoted as A)		
CCO[C@@H]1C[C@H]2C(=O)NC3(CCC3)C(=O)N(C)[C@@H](C3CCCC3)C(=O)N(C)[C@H](C(=O)N(C)C)CC(=O)N(C)[C@@H](CC(C)(C)C)C(=O)N[C@@H]([C@@H](C)CC)C(=O)N(C)CC(=O)N(C)[C@H]3C/C=C\CCN(C3=O)[C@@H](CC3CCCCC3)C(=O)N(C)CC(=O)N[C@@H](CCc3cc(F)c(C(F)(F)F)c(F)c3)C(=O)N2C1 [PP1474]			0.23 nM	48.2 nM				A (a compound having 10 or more and less than 20 is denoted as A)	A (a compound having 10 or more and less than 20 is denoted as A)
CCCOC[C@H]1C(=O)N[C@@H]([C@@H](C)CC)C(=O)N(C)CC(=O)N(C)[C@H]2C/C=C\CCN(C2=O)[C@@H](CC2CCC(F)(F)CC2)C(=O)N(C)CC(=O)N[C@@H](CCc2cc(F)c(C(F)(F)F)c(F)c2)C(=O)N2C[C@@H](C)C[C@H]2C(=O)NC2(CC(C)(C)C2)C(=O)N(C)[C@@H](C(CC)CC)C(=O)N(C)[C@H](C(=O)N(C)C)CC(=O)N1C [PP2490]		162 nM			1.7 nM	A (a compound having 10 or more and less than 20 is denoted as A)	AA (a compound having 20 or more is denoted as AA)		
CCO[C@@H]1C[C@H]2C(=O)NC3(CCC3)C(=O)N(C)[C@@H](C3CCCC3)C(=O)N(C)[C@H](C(=O)N(C)C)CC(=O)N(C)[C@@H](CC)C(=O)N[C@@H]([C@@H](C)CC)C(=O)N(C)CC(=O)N(C)[C@H]3CCCCCN(C3=O)[C@@H](Cc3ccc(F)cc3)C(=O)N(C)CC(=O)N[C@@H](CCc3cc(F)c(C(F)(F)F)c(F)c3)C(=O)N2C1 [PP1190]			0.092 nM	15.5 nM				B (a compound having 3 or more and less than 10 is denoted as B)	B (a compound having 3 or more and less than 10 is denoted as B)
CCC(CC)[C@H]1C(=O)N(C)[C@H](C(=O)N(C)C)CC(=O)N(C)[C@@H](COC)C(=O)N[C@@H]([C@@H](C)CC)C(=O)N(C)CC(=O)N(C)[C@H]2C/C=C\CCN(C2=O)[C@@H](CC2CCC(F)(F)CC2)C(=O)N(C)CC(=O)N[C@@H](CCc2ccc(C(F)(F)F)c(Cl)c2)C(=O)N2C[C@@H](C)C[C@H]2C(=O)NC2(CC(C)(C)C2)C(=O)N1C [PP2454]		80.2 nM			1.2 nM	A (a compound having 10 or more and less than 20 is denoted as A)	AA (a compound having 20 or more is denoted as AA)		
CCC[C@H]1C(=O)N[C@@H]([C@@H](C)CC)C(=O)N(C)CC(=O)N(C)[C@H]2C/C=C\CCN(C2=O)[C@@H](Cc2ccc(C)cc2)C(=O)N(C)CC(=O)N[C@@H](CCc2ccc(Cl)c(Cl)c2)C(=O)N2C[C@H](OCC)C[C@H]2C(=O)NC2(CC(C)(C)C2)C(=O)N(C)[C@@H](CC(C)(C)C)C(=O)N(C)[C@H](C(=O)N(C)C)CC(=O)N1C [PP2714]		13.2 nM			0.25 nM	A (a compound having 10 or more and less than 20 is denoted as A)	A (a compound having 10 or more and less than 20 is denoted as A)		
CCOC[C@H]1C(=O)N[C@@H]([C@@H](C)CC)C(=O)N(C)CC(=O)N(C)[C@H]2C/C=C\CCN(C2=O)[C@@H](Cc2ccc(C)cc2)C(=O)N(C)CC(=O)N[C@@H](CCc2cc(F)c(C(F)(F)F)c(F)c2)C(=O)N2C[C@H](OCC)C[C@H]2C(=O)NC2(CC(C)(C)C2)C(=O)N(C)[C@@H](C2CCCC2)C(=O)N(C)[C@H](C(=O)N(C)CC)CC(=O)N1C [PP2404]		4.1 nM			0.09 nM	A (a compound having 10 or more and less than 20 is denoted as A)	A (a compound having 10 or more and less than 20 is denoted as A)		

Now from value to compound, other results behind:

Kd ([1]; Single Cycle Kinetics)	IC50 ([3]; NCI-H441 cells, 4 days)	Kd [1, 6]	IC50 [3, 9]	Kd ([1]; 1:1 binding model)	SMILES	HRAS /KRAS (HRAS wild-type protein; [4])	NRAS /KRAS [2, 5]	HRAS /KRAS (HRAS wild-type protein; [7])	NRAS /KRAS [2, 8]
0.7 nM	29.8 nM				CCC[C@H]1C(=O)N[C@@H](C2CCCC2)C(=O)N(C)CC(=O)N(C)[C@H]2C/C=C\CCN(C2=O)[C@@H](Cc2ccc(C)cc2)C(=O)N(C)CC(=O)N[C@@H](CCc2ccc(C(F)(F)F)c(OC)c2)C(=O)N2CC3(CC3)C[C@H]2C(=O)NC2(CCC2)C(=O)N(C)[C@@H](C(CC)CC)C(=O)N(C)[C@H](C(=O)N(C)C)CC(=O)N1C [PP3430]	A (a compound having 10 or more and less than 20 is denoted as A)	AA (a compound having 20 or more is denoted as AA)		
0.037 nM	4.6 nM				CCC[C@H]1C(=O)N[C@@H](C2CCCC2)C(=O)N(C)CC(=O)N(C)[C@H]2C/C=C\CCN(C2=O)[C@@H](Cc2ccc(C)cc2)C(=O)N(C)CC(=O)N[C@@H](CCc2ccc(C(F)(F)F)c(OC)c2)C(=O)N2CC3(CC3)C[C@H]2C(=O)N(C)C2(CCC2)C(=O)N(C)[C@@H](CC(C)(C)C)C(=O)N(C)[C@H](C(=O)N(C)C)CC(=O)N1C [PP3320]	B (a compound having 3 or more and less than 10 is denoted as B)	B (a compound having 3 or more and less than 10 is denoted as B)		
		3.8 nM	398 nM		CCO[C@@H]1C[C@H]2C(=O)NC3(CCC3)C(=O)N(C)[C@@H](C3CCCC3)C(=O)N(C)[C@@H](C(=O)N(C)C)CC(=O)N(C)[C@@H](CC)C(=O)N[C@@H]([C@@H](C)CC)C(=O)N(C)CC(=O)N(C)[C@H]3C/C=C\CCN(C3=O)[C@@H](Cc3ccc(C(F)(F)F)cc3)C(=O)N(C)CC(=O)N[C@@H](CCc3cc(F)c(C(F)(F)F)c(F)c3)C(=O)N2C1 [PP1234]			C (A compound having a KD ratio of 0.1 or more and less than 3 is denoted as C)	B (a compound having 3 or more and less than 10 is denoted as B)
0.083 nM	7.7 nM				CCC[C@H]1C(=O)N[C@@H]([C@@H](C)CC)C(=O)N(C)CC(=O)N(C)[C@H]2C/C=C\CCN(C2=O)[C@@H](Cc2ccc(C)cc2)C(=O)N(C)CC(=O)N[C@@H](CCc2ccc(C(F)(F)F)c(Cl)c2)C(=O)N2CC3(CC3)C[C@H]2C(=O)NC2(CCC2)C(=O)N(C)[C@@H](C2CCCC2)C(=O)N(C)[C@H](C(=O)N(C)C)CC(=O)N1C [PP3442]	B (a compound having 3 or more and less than 10 is denoted as B)	A (a compound having 10 or more and less than 20 is denoted as A)		
0.81 nM	15.2 nM				CCCO[C@@H]1C[C@H]2C(=O)NC3(CC(C)(C)C3)C(=O)N(C)[C@@H](C3CCCC3)C(=O)N(C)[C@H](C(=O)N(C)CC)CC(=O)N(C)[C@@H](COCC)C(=O)N[C@@H]([C@@H](C)CC)C(=O)N(C3CC3)CC(=O)N(C)[C@H]3C/C=C\CCN(C3=O)[C@@H](Cc3ccc(C(F)(F)F)cc3)C(=O)N(C)CC(=O)N[C@@H](CCc3ccc(C(F)(F)F)c(Cl)c3)C(=O)N2C1 [PP3403]	A (a compound having 10 or more and less than 20 is denoted as A)	A (a compound having 10 or more and less than 20 is denoted as A)		

Reference: patent publication EP4603105A1, “PHARMACEUTICAL COMPOSITION CONTAINING CYCLIC COMPOUND HAVING SELECTIVE KRAS INHIBITORY EFFECT AGAINST HRAS AND NRAS” (CHUGAI SEIYAKU KABUSHIKI KAISHA, priority 2022, dated 2024)
